According to DBAASP:
≈ marks a conversion by molar mass, not a printed value. Blank lines part the entries; values can stand above or below the compound they belong to.

How the values were obtained:
Assay in all cases: ≥ marks a high value that may be exact or a test limit, other limits are often not marked, values filed in µg/mL are converted to µM
[1] = tested on: Staphylococcus aureus Cowan 1
[2] = tested on: Leishmania major MHOM/IL/67/JERICHO-II
Escherichia coli HB101 = tested on: Escherichia coli HB101
Sporothrix schenckii = tested on: Sporothrix schenckii
[3] = tested on: Staphylococcus aureus ATCC 25923
Cryptococcus neoformans = tested on: Cryptococcus neoformans
[4] = tested on: Staphylococcus aureus ATCC 33592
[5] = tested on: Staphylococcus aureus ATCC 29213
[6] = tested on: Staphylococcus aureus ATCC 700698
[7] = tested on: Pseudomonas aeruginosa ATCC BAA-427
[8] = tested on: Klebsiella pneumoniae ATCC 27736
[9] = tested on: Staphylococcus aureus ATCC 700699
[10] = tested on: Candida parapsilosis ATCC 22019
[11] = tested on: Staphylococcus aureus ATCC BAA-44
[12] = tested on: Bacillus subtilis ATCC 6633
[13] = tested on: Candida albicans ATCC 10231
[14] = tested on: Escherichia coli ATCC 9637
[15] = tested on: Pseudomonas aeruginosa ATCC 27853
[16] = tested on: Escherichia coli ATCC 25922
[17] = tested on: Salmonella enterica subsp. enterica serovar Enteritidis
[18] = tested on: Escherichia coli ATCC 35218
Saccharomyces cerevisiae = tested on: Saccharomyces cerevisiae
[19] = tested on: Staphylococcus aureus ST1065
[20] = tested on: Klebsiella pneumoniae ATCC 13883
[21] = tested on: Candida albicans ATCC 90028
[22] = tested on: Staphylococcus aureus ATCC 43300
[23] = tested on: Acinetobacter baumannii ATCC 19606
[24] = tested on: Enterococcus faecalis ATCC 29212
Escherichia coli ML-35p = tested on: Escherichia coli ML-35p
Bacillus megaterium = tested on: Bacillus megaterium
[25] = tested on: Staphylococcus aureus 1550
[26] = tested on: Micrococcus luteus ATCC 9341
[27] = tested on: Escherichia coli ATCC 2592
[28] = tested on: Staphylococcus aureus ATCC 6538
[29] = tested on: Pseudomonas aeruginosa ATCC 9027
Escherichia coli C25 = tested on: Escherichia coli C25
[30] = tested on: Enterobacter cloacae beta-12
[31] = tested on: Serratia marcescens ATCC 4112
[32] = tested on: Alcaligenes faecalis ATCC 8750
Salmonella sp. = tested on: Salmonella sp.
[33] = tested on: Salmonella enterica subsp. arizonae
Escherichia coli SBS 363 = tested on: Escherichia coli SBS 363
Escherichia coli D31 = tested on: Escherichia coli D31
[34] = tested on: Streptococcus sobrinus ATCC 6715
[35] = tested on: Streptococcus sanguinis ATCC 10556
[36] = tested on: Streptococcus mutans UA159

MIC [1]: ≥ 50.6 µM
MIC [2]: ≥ 50.6 µM
MIC (Escherichia coli HB101): ≥ 50.6 µM
Compound: CSCC[C@H](NC(=O)[C@@H](NC(=O)CNC(=O)[C@H](CC(C)C)NC(=O)[C@H](CCCCN)NC(=O)[C@H](CCCCN)NC(=O)[C@H](CC(C)C)NC(=O)[C@H](CCSC)NC(=O)[C@@H](NC(=O)[C@H](CCCCN)NC(=O)[C@H](Cc1c[nH]c2ccccc12)NC(=O)[C@H](CC(C)C)NC(=O)[C@H](C)N)[C@@H](C)O)[C@@H](C)O)C(N)=O [ALWKTMLKKLGTM]

MIC (Sporothrix schenckii): 30 µM (≈ 89.2 µg/mL)
MIC [3]: 3 µM (≈ 8.92 µg/mL)
MIC (Cryptococcus neoformans): 30 µM (≈ 89.2 µg/mL)
MIC [4]: 1.6 µM (≈ 4.76 µg/mL)
MIC [5]: 3 µM (≈ 8.92 µg/mL)
MIC [6]: 3 µM (≈ 8.92 µg/mL)
MIC [7]: 13.6 µM (≈ 40.4 µg/mL)
MIC [8]: 27.2 µM (≈ 80.9 µg/mL)
MIC [9]: 3 µM (≈ 8.92 µg/mL)
MIC [10]: 30 µM (≈ 89.2 µg/mL)
MIC [11]: 3 µM (≈ 8.92 µg/mL)
MIC [12]: 3 µM (≈ 8.92 µg/mL)
MIC [13]: > 30 µM
MIC [14]: 6.8 µM (≈ 20.2 µg/mL)
Compound: CC[C@H](C)[C@H](NC(=O)[C@H](C)NC(=O)CNC(=O)[C@H](CCCCN)NC(=O)[C@@H](NC(=O)[C@H](CC(C)C)NC(=O)[C@H](Cc1c[nH]c2ccccc12)NC(=O)CNC(=O)[C@H](Cc1ccccc1)NC(=O)[C@@H](N)Cc1ccccc1)[C@@H](C)CC)C(=O)N[C@@H](Cc1cnc[nH]1)C(=O)N[C@@H](C)C(=O)N1CCC[C@H]1C(=O)N[C@@H](CCCCN)C(=O)N[C@@H](C)C(=O)N[C@H](C(=O)N[C@@H](Cc1cnc[nH]1)C(=O)N1CCC[C@H]1C(=O)N[C@@H](CC(C)C)C(=O)N[C@H](C(=O)N[C@@H](Cc1cnc[nH]1)C(=O)N[C@@H](CCCN=C(N)N)C(=O)N[C@@H](CCCN=C(N)N)C(=O)N[C@@H](CCCN=C(N)N)C(=O)N[C@@H](Cc1cnc[nH]1)C(=O)O)[C@@H](C)CC)[C@@H](C)CC [FFGWLIKGAIHAPKAIHPLIHRRRH]

MIC [15]: > 200 µM
MIC [3]: 6.25 µM (≈ 10.4 µg/mL)
MIC [16]: 5 µM (≈ 8.29 µg/mL)
MIC [17]: ≥ 200 µM
MIC [18]: ≥ 50 µM
MIC (Saccharomyces cerevisiae): 25 µM (≈ 41.4 µg/mL)
MIC [10]: ≥ 200 µM
MIC [11]: 6.25 µM (≈ 10.4 µg/mL)
MIC [19]: 6.25 µM (≈ 10.4 µg/mL)
MIC [20]: ≥ 100 µM
MIC [21]: ≥ 100 µM
MIC [22]: 6.25 µM (≈ 10.4 µg/mL)
MIC [23]: 25 µM (≈ 41.4 µg/mL)
MIC [24]: 25 µM (≈ 41.4 µg/mL)
MIC (Escherichia coli ML-35p): 25 µM (≈ 41.4 µg/mL)
MIC (Bacillus megaterium): 1.56 µM (≈ 2.59 µg/mL)
Compound: CC[C@H](C)[C@H](NC(=O)CNC(=O)[C@H](C)NC(=O)[C@H](CC(C)C)NC(=O)[C@H](C)NC(=O)[C@H](C)NC(=O)[C@@H]1CCCN1C(=O)[C@H](CC(C)C)NC(=O)[C@@H](N)Cc1ccccc1)C(=O)NCC(=O)NCC(=O)N[C@H](C(=O)N[C@@H](CC(C)C)C(=O)NCC(=O)N[C@@H](CCCCN)C(=O)N[C@@H](CC(C)C)C(=O)N[C@@H](Cc1ccccc1)C(N)=O)[C@@H](C)CC [FLPAALAGIGGILGKLF]

MIC [25]: 19.8 µM (≈ 25 µg/mL)
MIC [26]: 6.35 µM (≈ 8 µg/mL)
MIC [27]: 17.5 µM (≈ 22 µg/mL)
MIC [28]: 9.92 µM (≈ 12.5 µg/mL)
MIC [29]: 7.94 µM (≈ 10 µg/mL)
Compound: CC(C)[C@H](NC(=O)[C@H](CCCCN)NC(=O)[C@H](Cc1ccccc1)NC(=O)[C@@H](NC(=O)[C@@H](NC(=O)[C@H](CCCCN)NC(=O)[C@@H](N)CCCCN)C(C)C)C(C)C)C(=O)N[C@@H](CCCCN)C(=O)N[C@@H](Cc1ccccc1)C(=O)N[C@@H](Cc1cnc[nH]1)C(=O)O [KKVVFKVKFH]

MIC [3]: 8.4 µM (≈ 15.6 µg/mL)
MIC (Escherichia coli C25): 2.1 µM (≈ 3.9 µg/mL)
Compound: CC[C@H](C)[C@H](NC(=O)[C@H](Cc1ccc(O)cc1)NC(=O)[C@H](CCCN=C(N)N)NC(=O)[C@H](CCCN=C(N)N)NC(=O)[C@@H](N)CCCN=C(N)N)C(=O)NCC(=O)N[C@@H](CCCN=C(N)N)C(=O)N[C@@H](Cc1ccc(O)cc1)C(=O)N[C@H](C(=O)N[C@@H](CCCN=C(N)N)C(=O)N[C@@H](Cc1ccccc1)C(=O)N[C@@H](Cc1c[nH]c2ccccc12)C(=O)N[C@@H](CCCCN)C(N)=O)C(C)C [RRRYIGRYVRFWK]

MIC [15]: 6.26 µM (≈ 5.8 µg/mL)
MIC [30]: 3.13 µM (≈ 2.9 µg/mL)
MIC [31]: 6.26 µM (≈ 5.8 µg/mL)
MIC [32]: 6.26 µM (≈ 5.8 µg/mL)
MIC (Salmonella sp.): 6.26 µM (≈ 5.8 µg/mL)
MIC [33]: 6.26 µM (≈ 5.8 µg/mL)
MIC (Escherichia coli SBS 363): 6.26 µM (≈ 5.8 µg/mL)
MIC (Escherichia coli D31): 6.26 µM (≈ 5.8 µg/mL)
Compound: CC(C)[C@H](NC(=O)[C@H](C)NC(=O)[C@@H]1CCCN1C(=O)[C@H](Cc1ccc(O)cc1)NC(=O)[C@@H](N)CCCN=C(N)N)C(=O)NCC(=O)N[C@@H](Cc1ccc(O)cc1)C(=O)N[C@H](C(=O)O)[C@@H](C)O [RYPAVGYT]

MIC [34]: 4.22 µM (≈ 8 µg/mL)
MIC [35]: 4.22 µM (≈ 8 µg/mL)
MIC [36]: 4.22 µM (≈ 8 µg/mL)
Compound: NCCCC[C@H](NC(=O)[C@H](Cc1c[nH]c2ccccc12)NC(=O)[C@H](CCCCN)NC(=O)[C@H](CCCCN)NC(=O)[C@H](Cc1ccccc1)NC(=O)[C@H](Cc1ccccc1)NC(=O)[C@H](CCCCN)NC(=O)[C@H](CCCCN)NC(=O)[C@H](Cc1ccccc1)NC(=O)[C@H](Cc1ccccc1)NC(=O)[C@H](CCCCN)NC(=O)[C@H](Cc1ccccc1)NC(=O)[C@@H](N)Cc1c[nH]c2ccccc12)C(=O)O [WFKFFKKFFKKWK]
